Source: patent US20110065735A1, “SUBSTITUTED QUINAZOLINES” (Shire LLC, priority 2008, published 2011)
Like-named read-outs stand apart in the source and are kept apart here.

Assays:
megakaryocytopoiesis [1] = test: inhibition of TPO-induced megakaryocytopoiesis (differentiation of human CD34+ stem cells into megakaryocytes); assay type: cell-based; details: read-out: anti-megakaryocytic IC50
Text: Such activity may be assessed using a well established model. Assessment of the in vitro anti-megakaryocytic activity—and potentially therefore the platelet lowering capability—of the anagrelide prodrugs can be determined using the model of megakaryocytopoiesis (Cohen-Solal et al., Thromb. Haemost. 1997, 78:37-41 and Cramer et al., Blood, 1997, 89:2336-46). This involves examining the differentiation of human CD34^+ stem cells into megakaryocytes which ultimately give rise to blood platelets.

[2] = system: human phosphodiesterase III (PDE III); test: PDE III inhibition; assay type: biochemical
[3] = human pharmacokinetics of anagrelide and its metabolite
megakaryocytopoiesis [4] = details: cited from earlier work
[5] = in vivo; cited from earlier work
aqueous solubility = assay type: physicochemical
in vivo = details: dog
Procedure: The potential benefit of improved water solubility on the absorption of these open-ring analogues was shown in a comparative bioavailability study in the dog. Using the unsubstituted ethyl-5,6-dichloro-3,4-dihydro-2-(1H)-iminoquinazoline-3-acetate HBr as a model compound, a comparison was made of the systemic availability of anagrelide when given as this compound or as anagrelide itself in equimolar doses (7.7 & 6.1 mg/kg respectively).
The lesser variability was consistent with more efficient absorption. This study illustrated the potential benefits of the open-ring prodrugs to improve absorption.

[6] = target: human phosphodiesterase III (PDE III); details: cited from earlier work
[7] = system: erythroid or myelomonocytic differentiation; details: stimulated by erythropoietin or granulocyte-macrophage colony-stimulating factor; cited from earlier work
[8] = conversion of prodrug to anagrelide in human plasma (LC/MS-MS); assay type: in vitro ADME; details: spiked 100 ng/mL, room temperature, first point of measurement (immediately after mixing)
Procedure: Such prodrugs are likely to be extremely rapidly and completely cyclised in plasma to the closed ring 3-alkylanagrelide analogues. […] Human plasma was spiked with anagrelide prodrug (final concentration 100 ng/mL). Immediately after mixing, and at 15, 30, 45 and 60 minutes afterward samples were analysed for anagrelide prodrug and anagrelide.

CC1(C)C(=O)NC2=Nc3ccc(Cl)c(Cl)c3CN21 [3,3-dimethyl anagrelide]
IC50 (megakaryocytopoiesis [1]): ~160 nM

O=C1NC2=Nc3ccc(Cl)c(Cl)c3CN2C1O (stereo not drawn) [3-hydroxyanagrelide]
potency as PDE III inhibitor relative to anagrelide [2]: over 40 fold | in vivo exposure relative to parent drug [3]: 2-3 fold | potency in inhibition of megakaryocytopoiesis relative to parent drug (megakaryocytopoiesis [4]): no more potent than the parent drug | typical half-life [5]: 2.5 h

O=C1CN2Cc3c(ccc(Cl)c3Cl)N=C2N1 [Anagrelide, 6,7-dichloro-1,5-dihydroimidazo[2,1-b]-quinazolin-2(3H)-one]
IC50 (megakaryocytopoiesis [1]; Homo sapiens): 27 nM | solubility (aqueous solubility; aqueous, pH 7, aqueous buffer, read-out: aqueous solubility): < 10 µg/mL | metabolite-to-drug exposure ratio (in vivo; male): 1.5 | AUC (in vivo; male, AUC for anagrelide, range): 21.6 to 188 ng·h/mL | Cmax (in vivo; male, Cmax for anagrelide, range): 9.5 to 44.3 ng/mL | IC50 (megakaryocytopoiesis [4]; estimated, background statement, read-out: IC50 inhibition of TPO-induced megakaryocytopoiesis): ~26 nM | IC50 [6]: ~29 nM | effect on erythroid or myelomonocytic differentiation [7]: does not affect | first pass effect [5]: > 50% | typical half-life [5]: 1.5 h

Br.CCOC(=O)CN1Cc2c(ccc(Cl)c2Cl)NC1=N [ethyl-5,6-dichloro-3,4-dihydro-2-(1H)-iminoquinazoline-3-acetate HBr]
solubility (aqueous solubility; distilled water): ~5500 µg/mL | prodrug remaining in human plasma [8]: no prodrug could be found | metabolite-to-drug exposure ratio (in vivo): 0.9 | fold higher Cmax for anagrelide than after anagrelide itself (in vivo; 6.1 mg/kg): approximately 17 fold | mean fold higher AUC for anagrelide than after anagrelide itself (in vivo; 6.1 mg/kg): 16 fold

Cc1[nH]c(=O)c(C#N)cc1-c1ccncc1 [milrinone]
IC50 [6]: 170 to 350 nM
